From patent US12358907B2, “Substituted pyrrolidine amides III” (GRÜNENTHAL GMBH, priority 2019, dated 2025)
Where two headings read alike, the source gives them in different places.

Columns and labels:
[1] = biological target: human glucocorticoid receptor (Homo sapiens (Human), UniProt P04150); assay: Human glucocorticoid receptor (hGR) ligand-binding assay (3H-dexamethasone competition, IM9 cytosol); settings: read-out: % inhibition hGR at 1 μM
Procedure: Preferably, the glucocortitcoid receptor extracted from cytosol of IM9 cells is used for competitive radioligand binding assays to calculate percentage inhibition of the binding of radiolabeled ligand 3H-dexamethasone at the human glucocorticoid receptor.
The human lymphoblast cell line IM9 (ATCC, Bethesda, MD) was cultivated in RPMI 1640 media containing 10% fetal bovine serum, penicillin (100 U/ml), streptomycin (100 μg/ml), and 2 mM L-glutamine at 37° and 7% CO2 in a humidified incubator. Cells were centrifuged for 10 minutes at 1500 g and were washed in PBS and repelleted. Cell were then resuspended in homogenization buffer consisting of: 10 mM TES, 10 mM sodium molybdate, 1 mM EDTA, pH 7.4, 20 mM 2-mercaptoethanol, and 10% glycerol. Disruption of the cells was performed by nitrogen cavitation using 2×15 minutes at 600 to 750 psi nitrogen in a N2 cavitator at 0° C. The cell preparation was then centrifuged at 27,000 g for 15 minutes, and the resultant supernatant (=cytosol of IM9 cells) was centrifuged at 103,000 g for 60 minutes at 4° C. The amount of protein in the supernatant fraction was determined using a BCA assay kit and aliquots were snap frozen in a dry ice-acetone bath and stored at −70° C. Competitive binding assays were done in duplicate in homogenization buffer with a total volume of 200 μl. To this end, 1 mg of IM9 cytosol, 0.05 μCi (1.5 nM) of 3H-dexamethasone and unlabeled Example compounds as competitor compounds at 1 μM were mixed. The reaction was stopped after incubation at 0° C. for 16 to 18 hours by the addition of 100 μl of a charcoal-dextran mixture (2% activated charcoal, 0.5% dextran in 10 mM Tris, 1 mM EDTA, pH 7.4). Another incubation step at 0° C. for 10 minutes followed before the samples were centrifuged for 5 minutes at 8200 g. 100 μl of the supernatant) was finally assayed for radioactivity by liquid scintillationspectrometry, and percentage inhibition of 3H-dexamethasone binding was calculated.

[2] = biological target: glucocorticoid receptor (GAL4 DBD-GR) (Homo sapiens (Human), UniProt P04150); assay: GR cell-based assays (GRE agonist / GRE antagonist), CHO-Gal4/GR luciferase reporter
Chain of glucocorticoid receptor (GAL4 DBD-GR) (P04150 524-758): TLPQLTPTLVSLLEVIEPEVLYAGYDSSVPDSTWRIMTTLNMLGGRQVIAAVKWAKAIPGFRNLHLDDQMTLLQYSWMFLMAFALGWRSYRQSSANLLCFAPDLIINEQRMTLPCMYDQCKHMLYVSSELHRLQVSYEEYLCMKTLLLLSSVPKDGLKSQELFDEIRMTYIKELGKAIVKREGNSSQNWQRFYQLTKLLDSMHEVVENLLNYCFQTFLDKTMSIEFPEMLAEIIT
How it was run: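 CHO cells stably carrying GAL4 DBD-GR ligand-binding-domain fusion and a GAL4-UAS firefly luciferase reporter were treated in Opti-MEM with 8 half-log concentrations from 10 μM to 0.003 μM (0.5% DMSO, quadruplicates). Antagonist mode measured repression of beclomethasone-induced signal. Luminescence after lysis gave EC50 or IC50.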

Chain of human glucocorticoid receptor (P04150 whole entry): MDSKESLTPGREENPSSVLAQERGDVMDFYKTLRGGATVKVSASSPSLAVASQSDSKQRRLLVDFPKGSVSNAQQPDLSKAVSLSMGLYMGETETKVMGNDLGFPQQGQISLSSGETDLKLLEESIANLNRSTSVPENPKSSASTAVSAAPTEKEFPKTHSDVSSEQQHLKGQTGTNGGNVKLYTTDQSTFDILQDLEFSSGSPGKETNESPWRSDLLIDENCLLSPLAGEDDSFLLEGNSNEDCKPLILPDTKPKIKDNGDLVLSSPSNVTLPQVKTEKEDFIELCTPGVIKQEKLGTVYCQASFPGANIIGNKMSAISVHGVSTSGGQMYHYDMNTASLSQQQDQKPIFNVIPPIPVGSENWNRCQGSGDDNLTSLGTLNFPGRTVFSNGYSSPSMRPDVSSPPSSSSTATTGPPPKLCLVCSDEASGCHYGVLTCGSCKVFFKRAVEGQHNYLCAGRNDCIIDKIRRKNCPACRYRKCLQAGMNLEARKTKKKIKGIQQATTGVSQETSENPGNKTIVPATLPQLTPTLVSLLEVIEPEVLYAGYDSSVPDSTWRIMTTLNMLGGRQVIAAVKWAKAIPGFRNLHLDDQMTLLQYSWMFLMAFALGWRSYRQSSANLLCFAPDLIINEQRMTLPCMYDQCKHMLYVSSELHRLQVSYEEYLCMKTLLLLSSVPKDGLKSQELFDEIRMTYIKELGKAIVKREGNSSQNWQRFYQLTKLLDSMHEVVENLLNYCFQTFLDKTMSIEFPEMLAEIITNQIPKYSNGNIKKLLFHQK

SMILES	inhibition at 1 µM [1] [%]	IC50 ([2]; read-out: IC50 or EC50) [nM]	IC50 ([2]; CHO-Gal4/GR reporter cells, agonist mode (EC50) or antagonist mode against beclometasone (IC50), 6 hour incubation) [nM]
O=C(N[C@@H]1[C@@H](c2ccccc2)N(c2ccc3c(cnn3-c3ccc(F)cc3)c2)C(=O)C12CC2)C1CC1 (racemic) [Example 3, N-[rac-(6R,7S)-5-[1-(4-Fluorophenyl)-1H-indazol-5-yl]-4-oxo-6-phenyl-5-azaspiro[2.4]heptan-7-yl]-cyclopropanecarboxylic acid amide]	98	< 100	
O=C(N[C@@H]1[C@@H](c2ccccc2)N(c2ccc3c(ccn3-c3ccc(F)cc3)c2)C(=O)C12CC2)C1CC1 (racemic) [Example 5, N-trans-(5-(1-(4-fluorophenyl)-1H-indol-5-yl)-4-oxo-6-phenyl-5-azaspiro[2.4]heptan-7-yl)cyclopropanecarboxamide]	95	100 to 1000	
CC1(C)C(=O)N(c2ccc3c(cnn3-c3ccc(F)cc3)c2)[C@H](c2ccccc2)[C@H]1NC(=O)C1CC1 [Example 1, N-[(2R,3S)-1-[1-(4-Fluorophenyl)-1H-indazol-5-yl]-4,4-dimethyl-5-oxo-2-phenyl-pyrrolidin-3-yl]-cyclopropanecarboxylic acid amide]	99		< 100
CC1(C)C(=O)N(c2ccc3c(cnn3-c3ccc(F)cc3)c2)[C@@H](c2ccccc2)[C@@H]1NC(=O)C1CC1 [Example 2, N-[(2S,3R)-1-[1-(4-Fluorophenyl)-1H-indazol-5-yl]-4,4-dimethyl-5-oxo-2-phenyl-pyrrolidin-3-yl]-cyclopropanecarboxylic acid amide]	91	100 to 1000	
CC(F)(F)C(=O)N[C@H]1[C@H](c2ccccc2)N(c2ccc3c(cnn3-c3ccc(F)cc3)c2)C(=O)C1(C)C [Example 4, 2,2-Difluoro-N-[(2S,3R)-1-[1-(4-fluorophenyl)-1H-indazol-5-yl]-4,4-dimethyl-5-oxo-2-phenyl-pyrrolidin-3-yl]-propionamide]	95	100 to 1000	
Cc1cnc(C(=O)N[C@@H]2[C@@H](c3ccccc3)N(c3ccc4c(cnn4-c4ccc(=O)n(C)c4)c3)C(=O)C2(C)C)s1 [Example 6, N-[(2R,3S)-4,4-Dimethyl-1-[1-(1-methyl-6-oxo-1H-pyridin-3-yl)-1H-indazol-5-yl]-5-oxo-2-phenyl-pyrrolidin-3-yl]-5-methyl-thiazole-2-carboxylic acid amide]	97	100 to 1000	
Cc1cc(C(=O)N[C@@H]2[C@@H](c3ccccc3)N(c3ccc4c(cnn4-c4ccc(=O)n(C)c4)c3)C(=O)C2(C)C)no1 [Example 7, N-((2R,3S)-4,4-dimethyl-1-(1-(1-methyl-6-oxo-1,6-dihydropyridin-3-yl)-1H-indazol-5-yl)-5-oxo-2-phenylpyrrolidin-3-yl)-5-methylisoxazole-3-carboxamide]	96	1000 to 15000	
Cc1cc(C(=O)N[C@H]2[C@H](c3ccccc3)N(c3ccc4c(cnn4-c4ccc(=O)n(C)c4)c3)C(=O)C2(C)C)no1 [Example 22, N-[(2S,3R)-4,4-Dimethyl-1-[1-(1-methyl-6-oxo-1H-pyridin-3-yl)-1H-indazol-5-yl]-5-oxo-2-phenyl-pyrrolidin-3-yl]-5-methyl-isoxazole-3-carboxylic acid amide]	18		
Cn1cc(-n2ncc3cc(N4C(=O)C(C)(C)[C@@H](NC(=O)c5cncs5)[C@@H]4c4ccccc4)ccc32)ccc1=O [Example 24, N-[(2S,3R)-4,4-Dimethyl-1-[1-(1-methyl-6-oxo-1H-pyridin-3-yl)-1H-indazol-5-yl]-5-oxo-2-phenyl-pyrrolidin-3-yl]-thiazole-5-carboxylic acid amide]	12		
